Assay results reported in patent US9193731B2, “Antimicrobial compounds and methods of making and using the same” (Melinta Therapeutics, Inc., priority 2009, dated 2015).

The compounds below were run on Escherichia coli strain ATCC25922 (assay: standard microdilution assay to determine minimum inhibitory concentrations (MICs)). Conditions: Escherichia coli strain ATCC25922, microdilution.
Assay type: cell-based
Summary of the method: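 E. coli strain ATCC25922 tested per CLSI microdilution methodology (about 100 microliters per well) to find minimum inhibitory concentrations. Activity scored categorically at a 16 micrograms/ml threshold.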

| Compound | E. coli ATCC25922 MIC |
| --- | --- |
| N=C(N)NCCCNCc1ccc(-n2cc3cc(CCS(=O)(=O)N(Cc4ccc(Cl)c(Cl)c4)C4CCNCC4)[nH]c3nc2=O)cc1 [Compound 913] | + (a “+” indicates that the compound has an MIC value of 16 micrograms/ml or less) |
| NCCCNCc1ccc(-n2cc3cc(-c4cc(CN5CCS(=O)(=O)CC5)cc(N5CCNCC5)c4)[nH]c3nc2=O)cc1 [Compound 914] | − (a “−” indicates that the compound has an MIC value greater than 16 micrograms/ml) |
| N=C(N)NCCCNCc1ccc(-n2cc3cc(-c4cc(CN5CCS(=O)(=O)CC5)cc(N5CCNCC5)c4)[nH]c3nc2=O)cc1 [Compound 915] | + (a “+” indicates that the compound has an MIC value of 16 micrograms/ml or less) |
| NCCCNCc1ccc(-n2cc3cc(-c4ccc(C(NC5CCNCC5)C(F)(F)F)cc4)[nH]c3nc2=O)cc1 (stereo not shown) [Compound 918] | + (a “+” indicates that the compound has an MIC value of 16 micrograms/ml or less) |
| N=C(N)NCCCNCc1ccc(-n2cc3cc(-c4ccc(S(=O)(=O)N(Cc5cc(Cl)cc(C(F)(F)F)c5)C5CCNCC5)cc4)[nH]c3nc2=O)cc1 [Compound 922] | + (a “+” indicates that the compound has an MIC value of 16 micrograms/ml or less) |
| N=C(N)NCCCNCCCCCn1cc2cc(-c3ccc(S(=O)(=O)NC4CCNCC4)cc3)[nH]c2nc1=O [Compound 924] | + (a “+” indicates that the compound has an MIC value of 16 micrograms/ml or less) |
| N=C(N)NCCCOCc1ccc(-c2cn3cc(-c4ccc(C(=O)NC5CCNCC5)cc4)[nH]c3nc2=O)cc1 [Compound 928] | + (a “+” indicates that the compound has an MIC value of 16 micrograms/ml or less) |
| N=C(N)NCCCNCc1ccc(-n2cc3cc(CCS(=O)(=O)N(CC4CCOCC4)C4CCNCC4)[nH]c3nc2=O)cc1 [Compound 930] | + (a “+” indicates that the compound has an MIC value of 16 micrograms/ml or less) |
| NCCCOCc1ccc(-c2cn3cc(-c4ccc(C(=O)N5CCNCC5)cc4)[nH]c3nc2=O)cc1 [Compound 931] | − (a “−” indicates that the compound has an MIC value greater than 16 micrograms/ml) |
| CNCc1ccc(-n2cc3cc(-c4ccc(S(=O)(=O)N(Cc5ccc(Cl)c(Cl)c5)C5CCNCC5)cc4)[nH]c3nc2=O)cc1 [Compound 933] | − (a “−” indicates that the compound has an MIC value greater than 16 micrograms/ml) |
| N=C(N)NCCCNCc1ccc(-n2cc3cc(-c4ccc(S(=O)(=O)N(CCCn5ccc(C(F)(F)F)n5)C5CCNCC5)cc4)[nH]c3nc2=O)cc1 [Compound 934] | + (a “+” indicates that the compound has an MIC value of 16 micrograms/ml or less) |
| NCc1ccc(-n2cc3cc(-c4ccc(S(=O)(=O)N(CC5CC5)C5CCNCC5)cc4)[nH]c3nc2=O)cc1 [Compound 935] | − (a “−” indicates that the compound has an MIC value greater than 16 micrograms/ml) |
| CNCc1ccc(-n2cc3cc(-c4ccc(S(=O)(=O)N(CC5CC5)C5CCNCC5)cc4)[nH]c3nc2=O)cc1 [Compound 936] | − (a “−” indicates that the compound has an MIC value greater than 16 micrograms/ml) |
| CN(CCCO)Cc1cc(-c2cc3cn(-c4ccc(CNCCCNC(=N)N)cc4)c(=O)nc3[nH]2)cc(N2CCNCC2)c1 [Compound 937] | + (a “+” indicates that the compound has an MIC value of 16 micrograms/ml or less) |
| CN(CCCO)C(=O)c1cc(-c2cc3cn(-c4ccc(CNCCCNC(=N)N)cc4)c(=O)nc3[nH]2)cc(N2CCNCC2)c1 [Compound 940] | + (a “+” indicates that the compound has an MIC value of 16 micrograms/ml or less) |
| N=C(N)NCCCNCc1ccc(-n2cc3cc(-c4ccc(S(=O)(=O)NC5CCN(CCF)CC5)cc4)[nH]c3nc2=O)cc1 [Compound 943] | + (a “+” indicates that the compound has an MIC value of 16 micrograms/ml or less) |
| N=C(N)NCCCNCc1ccc(-n2cc3cc(-c4ccc(C(NC5CCNCC5)C(F)(F)F)cc4)[nH]c3nc2=O)cc1 (stereo not shown) [Compound 944] | + (a “+” indicates that the compound has an MIC value of 16 micrograms/ml or less) |

| Compound | E. coli ATCC25922 MIC |
| --- | --- |
| CN(Cc1cccnc1)C(=O)c1cc(-c2cc3cn(-c4ccc(CNCCCNC(=N)N)cc4)c(=O)nc3[nH]2)cc(N2CCNCC2)c1 [Compound 951] | − (a “−” indicates that the compound has an MIC value greater than 16 micrograms/ml) |
| CN(Cc1cccc(F)c1)C(=O)c1cc(-c2cc3cn(-c4ccc(CNCCCNC(=N)N)cc4)c(=O)nc3[nH]2)cc(N2CCNCC2)c1 [Compound 957] | + (a “+” indicates that the compound has an MIC value of 16 micrograms/ml or less) |
| N=C(N)NCCCNCc1ccc(-n2cc3cc(-c4ccc(S(=O)(=O)N(CC5(CO)CC5)C5CCNCC5)cc4)[nH]c3nc2=O)cc1 [Compound 958] | + (a “+” indicates that the compound has an MIC value of 16 micrograms/ml or less) |
| CNCc1ccc(-n2cc3cc(-c4ccc(S(=O)(=O)N(CCCN5CCCCC5)C5CCNCC5)cc4)[nH]c3nc2=O)cc1 [Compound 959] | − (a “−” indicates that the compound has an MIC value greater than 16 micrograms/ml) |
| N=C(N)NCCCN1CC=C(n2cc3cc(-c4ccc(S(=O)(=O)N(CCCN5CCCCC5)C5CCNCC5)cc4)[nH]c3nc2=O)CC1 [Compound 960] | + (a “+” indicates that the compound has an MIC value of 16 micrograms/ml or less) |
| NCc1ccc(-n2cc3cc(-c4ccc(S(=O)(=O)N(Cc5ccc6nonc6c5)C5CCNCC5)cc4)[nH]c3nc2=O)cc1 [Compound 961] | − (a “−” indicates that the compound has an MIC value greater than 16 micrograms/ml) |
| CNCc1ccc(-n2cc3cc(-c4ccc(S(=O)(=O)N(Cc5ccc6nonc6c5)C5CCNCC5)cc4)[nH]c3nc2=O)cc1 [Compound 962] | − (a “−” indicates that the compound has an MIC value greater than 16 micrograms/ml) |
| N=C(N)NCCCNCc1ccc(-n2cc3cc(-c4cc(C(=O)NCCc5ccc(F)cc5)cc(N5CCNCC5)c4)[nH]c3nc2=O)cc1 [Compound 963] | + (a “+” indicates that the compound has an MIC value of 16 micrograms/ml or less) |
| CN(CCc1ccccn1)C(=O)c1cc(-c2cc3cn(-c4ccc(CNCCCNC(=N)N)cc4)c(=O)nc3[nH]2)cc(N2CCNCC2)c1 [Compound 964] | − (a “−” indicates that the compound has an MIC value greater than 16 micrograms/ml) |
| N=C(N)NCCCN1CC=C(n2cc3cc(-c4ccc(S(=O)(=O)N(Cc5ccc(Cl)c(Cl)c5)C5CCNCC5)cc4)[nH]c3nc2=O)CC1 [Compound 966] | + (a “+” indicates that the compound has an MIC value of 16 micrograms/ml or less) |
| N=C(N)NCCCN1CC=C(n2cc3cc(-c4ccc(S(=O)(=O)N(CCCC5CCCC5)C5CCNCC5)cc4)[nH]c3nc2=O)CC1 [Compound 967] | + (a “+” indicates that the compound has an MIC value of 16 micrograms/ml or less) |
| CNCc1ccc(-n2cc3cc(-c4ccc(S(=O)(=O)N(CC5COc6ccccc6O5)C5CCNCC5)cc4)[nH]c3nc2=O)cc1 (stereo not shown) [Compound 968] | − (a “−” indicates that the compound has an MIC value greater than 16 micrograms/ml) |
| N=C(N)NCCCN1CC=C(n2cc3cc(-c4ccc(S(=O)(=O)N(CC5CC5)C5CCNCC5)cc4)[nH]c3nc2=O)CC1 [Compound 969] | + (a “+” indicates that the compound has an MIC value of 16 micrograms/ml or less) |
| N=C(N)NCCCNCc1ccc(-n2cc3cc(-c4cc(C(=O)NCC(F)F)cc(N5CCNCC5)c4)[nH]c3nc2=O)cc1 [Compound 970] | + (a “+” indicates that the compound has an MIC value of 16 micrograms/ml or less) |
| N=C(N)NCCCNCc1ccc(-n2cc3cc(-c4cc(C(=O)NCC(F)(F)F)cc(N5CCNCC5)c4)[nH]c3nc2=O)cc1 [Compound 971] | + (a “+” indicates that the compound has an MIC value of 16 micrograms/ml or less) |
| N=C(N)NCCCNCc1ccc(-c2cn3cc(C(=O)Nc4cccc(OC(F)(F)F)c4)[nH]c3nc2=O)cc1 [Compound 974] | − (a “−” indicates that the compound has an MIC value greater than 16 micrograms/ml) |
| N=C(N)NCCCNCc1ccc(-c2cn3cc(CCc4cccc(OC(F)(F)F)c4)[nH]c3nc2=O)cc1 [Compound 975] | − (a “−” indicates that the compound has an MIC value greater than 16 micrograms/ml) |

Same assay, conditions: Escherichia coli, ATCC25922, Escherichia coli strain ATCC25922, microdilution; read-out: E. coli ATCC25922 MIC

| Compound | MIC [µg/mL] |
| --- | --- |
| NCCCNCc1ccc(-n2cc3cc(CCS(=O)(=O)N(CC4CCOCC4)C4CCNCC4)[nH]c3nc2=O)cc1 [Compound 923] | < 16 |
| N=C1NCCCN1CCCCCn1cc2cc(-c3ccc(S(=O)(=O)NC4CCNCC4)cc3)[nH]c2nc1=O [Compound 925] | > 16 |
| N=C(N)NCCCNCc1ccc(-n2cc3cc(CCS(=O)(=O)NC4CCNCC4)[nH]c3nc2=O)cc1 [Compound 926] | < 16 |
| NCCCOCc1ccc(-c2cn3cc(-c4ccc(C(=O)NC5CCNCC5)cc4)[nH]c3nc2=O)cc1 [Compound 927] | > 16 |
| N=C(N)NCCCOCc1ccc(-c2cn3cc(-c4ccc(C(=O)N5CCNCC5)cc4)[nH]c3nc2=O)cc1 [Compound 932] | > 16 |
| NCCCNCc1ccc(-n2cc3cc(-c4ccc([C@H]5OC(=O)N[C@@H]5CO)cc4)[nH]c3nc2=O)cc1 [Compound 939] | > 16 |
| NCc1ccc(-n2cc3cc(-c4ccc(S(=O)(=O)N(Cc5ccc(Cl)c(Cl)c5)C5CCNCC5)cc4)[nH]c3nc2=O)cc1 [Compound 945] | > 16 |
| NCc1ccc(-n2cc3cc(-c4ccc(S(=O)(=O)N(CCCC5CCCC5)C5CCNCC5)cc4)[nH]c3nc2=O)cc1 [Compound 946] | > 16 |
| CNCc1ccc(-n2cc3cc(-c4ccc(S(=O)(=O)N(CCCC5CCCC5)C5CCNCC5)cc4)[nH]c3nc2=O)cc1 [Compound 947] | > 16 |
| NCc1ccc(-n2cc3cc(-c4ccc(S(=O)(=O)N(CCCN5CCCCC5)C5CCNCC5)cc4)[nH]c3nc2=O)cc1 [Compound 948] | > 16 |
| N=C(N)NCCCNCc1ccc(-c2cn3cc(CCc4cc(F)c(F)cc4F)[nH]c3nc2=O)cc1 [Compound 952] | > 16 |
| N=C(N)NCCCNCc1ccc(-c2cn3cc(C(=O)Nc4ccc(F)cc4)[nH]c3nc2=O)cc1 [Compound 965] | > 16 |
